Measured values from ChEMBL document CHEMBL1150077, “Phospholipase D inhibitors from a Myrsine species” (J Nat Prod, 1995).

How the values were obtained:
[1] = Inhibition of PMA-stimulated phospholipase D in human HL60 cells; format: cell-based; conditions: hl-60
[2] = Inhibition of fMLP-stimulated phospholipase D in human HL60 cells; format: cell-based; conditions: hl-60

CC1(C)CC[C@]23CO[C@@]4(CC[C@@H]5[C@@]6(C)CC[C@H](O[C@@H]7OC[C@H](O[C@@H]8O[C@H](CO)[C@@H](O)[C@H](O)[C@H]8O[C@@H]8OC[C@@H](O)[C@H](O)[C@H]8O)[C@H](O)[C@H]7O[C@@H]7O[C@H](CO)[C@@H](O)[C@H](O)[C@H]7O)C(C)(C)[C@@H]6CC[C@@]5(C)[C@]4(C)C[C@H]2O)[C@@H]3C1 [LYSIKOKIANOSIDE 1]
IC50 [1]: 3 µM
IC50 [2]: 8 µM

C[C@H]1O[C@@H](O[C@H]2[C@H](O[C@H]3CO[C@@H](O[C@H]4CC[C@]5(C)[C@H]6CC[C@]78OC[C@@]9(CCC(C)(C)C[C@H]97)[C@H](O)C[C@@]8(C)[C@]6(C)CC[C@H]5C4(C)C)[C@H](O[C@@H]4O[C@H](CO)[C@@H](O)[C@H](O)[C@H]4O)[C@H]3O)O[C@H](CO)[C@@H](O)[C@@H]2O)[C@@H](O)[C@@H](O)[C@@H]1O
IC50 [1]: 2 µM
IC50 [2]: 24 µM
